Article PMC12396409, “Screening and hit evaluation of a microbial metabolite library against the pathogenic Plasmodium falciparum and Toxoplasma gondii parasites” (International Journal for Parasitology: Drugs and Drug …, 2025)
Like-named read-outs stand apart in the source and are kept apart here.

Columns and labels:
[1] = tested on: T. gondii RH strain (RH-Tub-eYFP) tachyzoites; assay: microbe, parasite or virus in culture; type: cell-based, Toxoplasma gondii; settings: 72 h, 72 h; for percent parasite growth at 2 µg/mL: Toxoplasma gondii
[2] = tested on: P. falciparum 3D7 parasites; assay: P. falciparum growth inhibition assay, 1-cycle (72 h treatment), SYBR DNA staining (library screen at 2 μg/mL and dose-response); type: cell-based, Plasmodium falciparum; settings: for activity at 2 µg/mL: Plasmodium falciparum
[3] = tested on: P. falciparum 3D7 parasites; assay: P. falciparum growth inhibition assay, 2-cycle (120 h treatment), delayed-death screen and dose-response; type: cell-based, Plasmodium falciparum; settings: for activity at 2 µg/mL: Plasmodium falciparum
[4] = T. gondii, parasite screen 2 μg/mL, % growth, replicate 1, read-out: Tg_72h_%Growth_Rep1
[5] = T. gondii, parasite screen 2 μg/mL, % growth, replicate 2, read-out: Tg_72h_%Growth_Rep2
[6] = 3D7, P. falciparum, 72 h, parasite screen 2 μg/mL, % growth, replicate 1, read-out: Pf_72h_%Growth_Rep1
[7] = 3D7, P. falciparum, 72 h, parasite screen 2 μg/mL, % growth, replicate 2, read-out: Pf_72h_%Growth_Rep2
[8] = 3D7, P. falciparum, 120 h, parasite screen 2 μg/mL, % growth, replicate 1, read-out: Pf_120h_%Growth_Rep1
[9] = 3D7, P. falciparum, 120 h, parasite screen 2 μg/mL, % growth, replicate 2, read-out: Pf_120h_%Growth_Rep2
[10] = T. gondii, screen at 2 μg/mL, replicate 1, read-out: Tg_72h_%Growth_Rep1
[11] = T. gondii, screen at 2 μg/mL, replicate 2, read-out: Tg_72h_%Growth_Rep2
[12] = 3D7, P. falciparum, 72 h, screen at 2 μg/mL, replicate 1, read-out: Pf_72h_%Growth_Rep1
[13] = 3D7, P. falciparum, 72 h, screen at 2 μg/mL, replicate 2, read-out: Pf_72h_%Growth_Rep2
[14] = 3D7, P. falciparum, 120 h, screen at 2 μg/mL, replicate 1, read-out: Pf_120h_%Growth_Rep1
[15] = 3D7, P. falciparum, 120 h, screen at 2 μg/mL, replicate 2, read-out: Pf_120h_%Growth_Rep2
[16] = library screen at 2 μg/mL, % growth, replicate 1
[17] = library screen at 2 μg/mL, % growth, replicate 2
[18] = library screen at 2 μg/mL, 72 h, % growth, replicate 1
[19] = library screen at 2 μg/mL, 72 h, % growth, replicate 2
[20] = library screen at 2 μg/mL, 120 h, % growth, replicate 1
[21] = library screen at 2 μg/mL, 120 h, % growth, replicate 2

Q: With CC1(C)[C@H](C(=O)O)N2C(=O)C[C@H]2S1(=O)=O [Sulbactam sodium] as the compound, how does the percent parasite growth at 2 µg/mL [1, 4] read?
A: 134%

Q: What about the percent parasite growth at 2 µg/mL [1, 5] of the same compound?
A: 84.2%

Q: What about the activity at 2 µg/mL [2, 6] of the same compound?
A: 90.2%

Q: And the activity at 2 µg/mL [2, 7]?
A: 124%

Q: And the activity at 2 µg/mL [3, 8]?
A: 105%

Q: And the activity at 2 µg/mL [3, 9]?
A: 104%

Q: With COc1cc(C)c2c(c1C=O)Oc1c(c(C)c(O)c3c1C(O)OC3=O)OC2=O (stereo not drawn) [Stictic acid] as the compound, how does the percent parasite growth at 2 µg/mL [1, 4] read?
A: 115%

Q: What about the percent parasite growth at 2 µg/mL [1, 5] of the same compound?
A: 87%

Q: What about the activity at 2 µg/mL [2, 6] of the same compound?
A: 81.8%

Q: What about the activity at 2 µg/mL [2, 7] of the same compound?
A: 80.1%

Q: What about the activity at 2 µg/mL [3, 8] of the same compound?
A: 88.2%

Q: And the activity at 2 µg/mL [3, 9]?
A: 87.2%

Q: For Cc1nnc2n1-c1sc(CCC(=O)N3CCOCC3)cc1C(c1ccccc1Cl)=NC2 [WEB 2086], which percent parasite growth at 2 µg/mL [1, 10] is on record?
A: 91.8%

Q: What about the percent parasite growth at 2 µg/mL [1, 11] of the same compound?
A: 110%

Q: What about the activity at 2 µg/mL [2, 12] of the same compound?
A: 87.3%

Q: What about the activity at 2 µg/mL [2, 13] of the same compound?
A: 87.4%

Q: What about the activity at 2 µg/mL [3, 14] of the same compound?
A: 157%

Q: And the activity at 2 µg/mL [3, 15]?
A: 84.4%

Q: CC=CC(C)=CC(C)C(=O)CC(O)CC1CC(=O)NC(=O)C1 (stereo not drawn) [BIA-M1404] was tested. Which Tg_72h_%Growth_Rep1 ([1]; T. gondii, parasite screen at 2 μg/mL, % growth, replicate 1) did it give?
A: 4.29%

Q: What about the Tg_72h_%Growth_Rep2 ([1]; T. gondii, parasite screen at 2 μg/mL, % growth, replicate 2) of the same compound?
A: 7.26%

Q: And the Pf_72h_%Growth_Rep1 ([2]; P. falciparum 3D7, 72 h, parasite screen at 2 μg/mL, % growth, replicate 1)?
A: 71.61%

Q: What about the Pf_72h_%Growth_Rep2 ([2]; P. falciparum 3D7, 72 h, parasite screen at 2 μg/mL, % growth, replicate 2) of the same compound?
A: 88.22%

Q: And the Pf_120h_%Growth_Rep1 ([3]; P. falciparum 3D7, 120 h, parasite screen at 2 μg/mL, % growth, replicate 1)?
A: 85.21%

Q: And the Pf_120h_%Growth_Rep2 ([3]; P. falciparum 3D7, 120 h, parasite screen at 2 μg/mL, % growth, replicate 2)?
A: 78.18%

Q: With CC(=O)OC[C@@H](NC(=O)C(Cl)Cl)[C@H](O)c1ccc([N+](=O)[O-])cc1 [Chloramphenicol acetate] as the compound, how does the Tg_72h_%Growth_Rep1 ([1]; T. gondii, screen at 2 μg/mL, replicate 1) read?
A: 132.16%

Q: And the Tg_72h_%Growth_Rep2 ([1]; T. gondii, screen at 2 μg/mL, replicate 2)?
A: 92.80%

Q: What about the Pf_72h_%Growth_Rep1 ([2]; P. falciparum, 72 h, screen at 2 μg/mL, replicate 1) of the same compound?
A: 90.71%

Q: And the Pf_72h_%Growth_Rep2 ([2]; P. falciparum, 72 h, screen at 2 μg/mL, replicate 2)?
A: 92.14%

Q: What about the Pf_120h_%Growth_Rep1 ([3]; P. falciparum, 120 h, screen at 2 μg/mL, replicate 1) of the same compound?
A: 100.35%

Q: What about the Pf_120h_%Growth_Rep2 ([3]; P. falciparum, 120 h, screen at 2 μg/mL, replicate 2) of the same compound?
A: 90.22%

Q: Which results are given for CC[C@H]1CC2CN3CCc4c([nH]c5ccc(OC)cc45)[C@](C(=O)OC)(C2)[C@H]13 (stereo in doubt) [Voacangine]?
A: percent parasite growth at 2 µg/mL [1, 10]: 89.9%; percent parasite growth at 2 µg/mL [1, 11]: 96.7%; activity at 2 µg/mL [2, 12]: 86.5%; activity at 2 µg/mL [2, 13]: 89.9%; activity at 2 µg/mL [3, 14]: 164%; activity at 2 µg/mL [3, 15]: 91%

Q: What does the source list for COC(=O)[C@]12Oc3cc(C)c(-c4c(C)cc5c(c4O)C(=O)C4=C(O)CC[C@H](O)[C@@]4(C(=O)OC)O5)c(O)c3C(=O)C1=C(O)CC[C@@H]2O [Rugulotrosin A]?
A: percent parasite growth at 2 µg/mL [1, 4]: 118%; percent parasite growth at 2 µg/mL [1, 5]: 86.1%; activity at 2 µg/mL ([2]; 3D7, 72 h, P. falciparum, 72 h, parasite screen 2 μg/mL, % growth, replicate 1, read-out: Pf_72h_%Growth_Rep1): 69.8%; activity at 2 µg/mL ([2]; 3D7, 72 h, P. falciparum, 72 h, parasite screen 2 μg/mL, % growth, replicate 2, read-out: Pf_72h_%Growth_Rep2): 106%; activity at 2 µg/mL ([3]; 3D7, 120 h, P. falciparum, 120 h, parasite screen 2 μg/mL, % growth, replicate 1, read-out: Pf_120h_%Growth_Rep1): 69.8%; activity at 2 µg/mL ([3]; 3D7, 120 h, P. falciparum, 120 h, parasite screen 2 μg/mL, % growth, replicate 2, read-out: Pf_120h_%Growth_Rep2): 107%

Q: What does the source list for CC(C)CCCCCC=CCC(=O)N[C@@H](CC(=O)O)C(=O)N[C@@H]1C(=O)N2CCCC[C@@H]2C(=O)N[C@@H](C(C)C(=O)O)C(=O)N[C@@H](CC(=O)O)C(=O)NCC(=O)N[C@@H](CC(=O)O)C(=O)NCC(=O)N[C@H](C(C)N)C(=O)N[C@@H](C(C)C)C(=O)N2CCC[C@H]2C(=O)NC1C (stereo partly drawn) [Aspartocin D]?
A: Tg_72h_%Growth_Rep1 [1, 16]: 85.89%; Tg_72h_%Growth_Rep2 [1, 17]: 91.61%; Pf_72h_%Growth_Rep1 [2, 18]: 103.30%; Pf_72h_%Growth_Rep2 [2, 19]: 89.43%; Pf_120h_%Growth_Rep1 [3, 20]: 152.69%; Pf_120h_%Growth_Rep2 [3, 21]: 104.90%

Q: COc1ccc(-c2coc3cc(O)cc(O)c3c2=O)cc1 [Biochanin A] was tested. Which Tg_72h_%Growth_Rep1 [1, 16] did it give?
A: 75.87%

Q: What about the Tg_72h_%Growth_Rep2 [1, 17] of the same compound?
A: 92.06%

Q: And the Pf_72h_%Growth_Rep1 [2, 18]?
A: 105.15%

Q: And the Pf_72h_%Growth_Rep2 [2, 19]?
A: 90.67%

Q: What about the Pf_120h_%Growth_Rep1 [3, 20] of the same compound?
A: 158.83%

Q: And the Pf_120h_%Growth_Rep2 [3, 21]?
A: 100.13%
